Measured values reported in patent US5840697A, “Peptide inhibitors of calmodulin” (Torrey Pines Institute for Molecular Studies, priority 1996, dated 1998).
Where two headings read alike, the source gives them in different places. Square brackets hold non-standard residues; d marks the D form. Peptide text beside a SMILES is read from it.

How the values were obtained:
[1] = system: NRK cells; experiment: long term stability: number of NRK cells at 48 hr after activation; type: cell-based, rat; settings: added at 5 hr, counted 48 hr after activation
Text: The similar activity found for the (L)-amino acid peptides and (D)-amino acid peptides indicate that the inhibition of calmodulin occurs rapidly following the addition of the inhibitory peptides. The peptides' long term stability was then studied by adding Ac-(D)Leu-(D)Trp-(D)Arg-(D)Ile-(D)Leu-(D)Trp-NH2, Ac-Leu-Trp-Arg-Ile-Leu-Trp-NH2 (SEQ ID No. 48), W13 and W12 at 5 hr following the reentry of the NRK cells into the cell cycle and measuring the number of cells at 48 hr after activation.

[2] = system: normal rat kidney (NRK) cells; experiment: DNA synthesis ([3H]-thymidine incorporation) in cell culture; type: cell-based; settings: added at 5 hr
Procedure: Following the methods described in Lopez-Girona et al., Cell Calcium, 18:30-40 (1995), which is incorporated herein by reference, the effect of calmodulin inhibitory peptides on DNA synthesis was investigated. Specifically, peptides were added to culture media and assessed for their ability to inhibit the progression of normal rat kidney (NRK) cells into the S phase of the cell cycle; the DNA synthesis phase into the cell growth cycle. Such inhibition has been shown for existing anti-calmodulin drugs such as W13.
NRK cells were made quiescent by growing them to confluence in Dulbecco's minimum essential medium supplemented with 5% fetal calf serum (FCS), and then kept for 3-4 days in the same medium but with only 0.5% FCS. To allow them to re-enter the cell cycle, quiescent cells were trypsinized and subcultured at a lower density in fresh medium supplemented with 5% FCS.
DNA synthesis was analyzed by the measurement of [^3 H]-thymidine into whole cell DNA. NRK cells (10^5 per 35 mm plate) were pulse labeled for 1 hr with [methyl-^3 H]-thymidine (5 Ci/mmol) at 4 μCi/ml in Dulbecco's minimum essential medium supplemented with 5% FCS. Precipitation and solubilization of DNA was carried out as described in Cripps-Wolfman et al., J. Biol. Chem., 264:19478-19486 (1989), which is incorporated herein by reference.
The NRK cells stimulated to proliferate by addition of 5% FCS enter synchronously into the cell cycle and start the S phase after 12 hr reaching a maximum between 18 to 20 hr. The peptides were added at 5 hr (time at which the cells have already reenter the G1 phase). […] Similar results were found between the (D)-amino acid peptides and their (L)-counterpart.

[3] = molecular target: calmodulin (Homo sapiens, UniProt P0DP23); experiment: calcium-dependent phosphodiesterase assay (calmodulin activity); type: biochemical
Procedure: In the calcium dependent phosphodiesterase assay, calmodulin can be assayed by its ability to stimulate phosphodiesterase activity as determined by a two-step assay procedure illustrated by reactions (1) and (2) below. [drawing 1]
During the first step of the assay cyclic adenosine 3'5'-monophosphate (cAMP) is incubated with calcium-activated phosphodiesterase (Cal-PDE), which hydrolyses the 3'bond producing adenosine 5'-monophosphate (5'-AMP). During the second step, 5'-AMP is quantitatively converted into adenosine and inorganic phosphate (Pi) through the action of a 5-nucleotidase. The reaction is followed by the measurement of the Pi formed by reading the absorbance at 660 nm after reacting with ammonium molybdate. The amount of Pi formed is directly related to the phosphodiesterase activity which depends on the level of activation by calmodulin.
To sample assay tubes were added the following components: assay buffer, 25 ul; CaCl2, 5 ul; 5'-nucleotidase, 7.5 ul (stock solution is 10 units/ml); calmodulin 5 units; calmodulin inhibitor peptides to obtain the desired final concentration of 50 μM. The volume was then made up to 200 ul with water. Control blanks were prepared replacing the peptides with water. The added components were thoroughly mixed and the tubes incubated at 30° C. for 10 min. […] The samples were centrifuged to remove the protein precipitate and the 50 ul of the supernatant was withdrawn for phosphate measurement. […] The absorbance of the solution were read at 660 nm using water as a blank, identified as control "Calmo."
The two controls used in the assay, one without and one with calmodulin, as indicated in FIG. 1 and Table I were as follows,: (1) PDE:
These three controls were used in the calcium-dependent phosphodiesterase assay for reproducibility of the assay.
In addition to the calcium-dependent phosphodiesterase assay data, IC50 values were determined for many of the peptides. The assay carried out for the determination in the IC50 values differed from the above screening assay by the concentration of the peptides being tested.
(3) TFP: trifluoperazine; and (4) Calmidasolium: (1-[bis-(4-chlorophenyl)methyl]-3[-2-(2,4-dichlorophenyl)-2[(2,4-dichlorophenyl)methoxy]-ethyl]-1H-imidazolium chloride. The IC50 values were calculated using sigmoidal curve software (Graphpad, ISI; San Diego, Calif.) using the % inhibition at different mixture concentrations (see protocol for determination of % inhibition).
The (L)-amino acid counterpart for five (5) of the all (D)-amino acid peptides identified from the PS-SCL were synthesized in order to study the stereoselectivity of the inhibition.

[4] = molecular target: phosphodiesterase; experiment: calcium-dependent phosphodiesterase assay in the absence of calmodulin; type: biochemical; settings: Table III
Procedure: To sample assay tubes were added the following components: assay buffer, 25 ul; CaCl2, 5 ul; 5'-nucleotidase, 7.5 ul (stock solution is 10 units/ml); calmodulin 5 units; calmodulin inhibitor peptides to obtain the desired final concentration of 50 μM. The volume was then made up to 200 ul with water. Control blanks were prepared replacing the peptides with water. The added components were thoroughly mixed and the tubes incubated at 30° C. for 10 min. Then, 25 ul of cAMP at 10.8 mM was added and incubated for 90 min at 30° C. The reaction was stopped by the addition of 50 ul of 55% trichloroacetic acid (TCA). The samples were centrifuged to remove the protein precipitate and the 50 ul of the supernatant was withdrawn for phosphate measurement. To the supernatant aliquot, 50 ul ammonium molybdate (0.55% in 1.1 N sulfuric acid) was added, followed by the addition of 5 ul of reducing agent (24 g sodium bisulfite, 2.4 g sodium sulfite, 0.5 g of 1-amino-2-naphthol-4-sulfonic acid in 200 ml of water), and the contents were mixed by vortexing. The absorbance of the solution were read at 660 nm using water as a blank, identified as control "Calmo."
As described above, one of the undesirable biological effects of existing calmodulin inhibitors is their non-specific binding to other proteins and the like. Therefore, the specificity of the instant inhibitory peptides for calmodulin was examined. The specificity was determined using the calcium-dependent phosphodiesterase assay described in Example I. The assay was carried out for the determination of IC50 values in the presence of calmodulin (IC50 value for calmodulin) and in the absence of calmodulin (IC50 for phosphodiesterase), the latter of which provides the effect of the inhibitory peptides on the phosphodiesterase.

[5] = system: rat liver cells; experiment: in vivo rat model: DNA synthesis of rat liver cells after partial hepatectomy; settings: intravenous injection 5 hours after partial hepatectomy, measured 24 hours post hepatectomy
Text: The effect that calmodulin inhibitors have on DNA synthesis were also studied in vivo in a rat model. Rat liver cells are a useful in vivo system for studying synchronized cells and the cell cycle. By partial hepatectomy, the hepatocyte quiescent cells present in normal adult rat liver can be stimulated to enter the replicative cell cycle and the effect of inhibitors on the cycle analyzed. This example provides the effect of the subject calmodulin inhibitory peptides on the DNA synthesis of rat liver cells in partial hepatectomy stage following intra venal injection of the peptides.
Male Sprague-Dawley rats ([…]; 2 rats per peptide or control) were fasted overnight. Partial hepatectomies were carried out under Ketolar anesthesia (Parke-Davis; Ann Arbor, Mich.), following the procedure described by Higgins and Anderson in Arch. Pathol., 12:186-202 (1931), which is incorporated herein by reference. […] DNA synthesis was assessed by measuring the radioactivity incorporated into DNA following an intraperitoneal injection (0.5 mCi/g body weight) of [^3 H] thymidine 1 hr prior to killing the rat and at 23 hours post hepatectomy. […] The liver tissue was homogenized in 10% trifluoroacetic acid at 4° C. and the DNA extracted and its radioactivity measured following the procedure described by Burton, Biochem. J., 62:315-320 (1956), which is incorporated herein by reference. […]

[6] = Table I, assayed at 75, 50 and 12.5 μM, average of repeated assays, read-out: Average IC50

| IC50 [3, 6] | IC50 ([3]; Table III, in the presence of calmodulin, read-out: IC50 (μM) for calmodulin) | SPECIFICITY ([3]; comparison of IC50 for phosphodiesterase with IC50 for calmodulin) | IC50 [4] | Compound | number of cells relative to control cells [1] | % DNA SYNTHESIS ([2]; 30 μM) | % DNA SYNTHESIS ([2]; 7.5 μM) | % DNA SYNTHESIS ([2]; 15 μM) | % DNA SYNTHESIS [5] |
| --- | --- | --- | --- | --- | --- | --- | --- | --- | --- |
| 93 µM |  |  |  | NCCCCNS(=O)(=O)c1ccc2c(Cl)cccc2c1 [Peptide W13, N-(4-aminobutyl)-5-chloro-2-naphtalenesulfonamide, reference compound] | significantly lower number of cells | 60% |  |  |  |
| 70 µM | 43 µM | 2.4 | 104 µM | CC[C@@H](C)[C@@H](NC(=O)[C@@H](CCC(N)=O)NC(=O)[C@@H](CC(C)C)NC(C)=O)C(=O)N[C@H](Cc1c[nH]cn1)C(=O)N[C@H](CC(C)C)C(=O)N[C@H](CCCNC(=N)N)C(N)=O [Ac-(D)Leu-(D)Gln-(D)Ile-(D)His-(D)Leu-(D)Arg-NH2] (Ac-[dL][dQ][dI][dH][dL][dR]-NH2) |  |  | 100% | 84% | 100% |
|  |  |  |  | NCCCCNS(=O)(=O)c1ccc2ccccc2c1 [Peptide W12, reference compound] | the same number of cells | 100% |  |  |  |
